In patent publication US20090312274A1, “Nyasol and Analogs Thereof for the Treatment of Estrogen Receptor Beta-Mediated Diseases” (Bionovo, Inc., priority 2008, published 2009):
Entries after “also recorded” stand apart in the source; their conditions may differ.

What was measured:
TNF-RE tkLuc = assay: Activation of the TNF-RE tkLuc reporter (TNF-α, antiestrogens); assay type: cell-based; conditions: for activation of TNF-RE tkLuc by antiestrogens: in contrast to E2
[1] = system: primary invasive breast cancer; conditions: women at high risk for breast cancer; cited from earlier work
[2] = system: estrogen receptor-positive breast cancer; conditions: cited from earlier work
ERβ [3] = molecular target: T1, ERβ (Homo sapiens, UniProt Q92731); conditions: in the presence of ERβ
T1 sequence (Q92731 whole entry): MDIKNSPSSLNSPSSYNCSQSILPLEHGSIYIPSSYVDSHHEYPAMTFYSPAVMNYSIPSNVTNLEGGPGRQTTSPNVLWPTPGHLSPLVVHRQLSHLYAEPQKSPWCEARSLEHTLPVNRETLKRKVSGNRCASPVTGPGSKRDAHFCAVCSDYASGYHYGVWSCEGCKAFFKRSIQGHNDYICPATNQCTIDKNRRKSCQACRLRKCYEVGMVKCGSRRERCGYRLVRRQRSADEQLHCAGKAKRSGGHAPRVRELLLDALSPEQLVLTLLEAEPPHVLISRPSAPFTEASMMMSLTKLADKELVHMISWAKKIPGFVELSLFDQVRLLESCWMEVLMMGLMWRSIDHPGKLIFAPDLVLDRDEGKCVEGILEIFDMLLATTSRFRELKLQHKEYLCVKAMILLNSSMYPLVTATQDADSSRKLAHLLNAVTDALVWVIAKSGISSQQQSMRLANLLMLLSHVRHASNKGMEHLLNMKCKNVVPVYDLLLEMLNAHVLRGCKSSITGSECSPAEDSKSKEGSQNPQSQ

[4] = molecular target: T2, estrogen receptor beta (ERβ) (Homo sapiens, UniProt Q92731); assay: ERE-tkLuc luciferase expression with nyasol in cells coexpressing ERβ (FIG. 3, FIG. 5); assay type: cell-based
T2 construct: expressed in transfected cells
T2 sequence (Q92731 whole entry): as above
Source text: FIG. 3 is a graph comparing luciferase expression in cells transformed with DNA encoding estrogen response element alpha linked to the minimal thymidine kinase (tk) promoter and a sequence encoding luciferase (Luc) in response to varying concentrations of nyasol in the presence of either estrogen receptor alpha (ERα) or estrogen receptor beta (ERβ).

breast cancer = conditions: among the 5129 women in the raloxifene treatment group; median follow-up 40 months; cited from earlier work
TNFα-RE = assay: Repression of TNFα-RE linked expression of Luc by nyasol (FIG. 4); conditions: in vitro
ERα = molecular target: T3, ERα (Homo sapiens, UniProt P03372); assay: Concentration binding curve for Nyasol, ERα (FIG. 6)
T3 sequence (P03372 1-595): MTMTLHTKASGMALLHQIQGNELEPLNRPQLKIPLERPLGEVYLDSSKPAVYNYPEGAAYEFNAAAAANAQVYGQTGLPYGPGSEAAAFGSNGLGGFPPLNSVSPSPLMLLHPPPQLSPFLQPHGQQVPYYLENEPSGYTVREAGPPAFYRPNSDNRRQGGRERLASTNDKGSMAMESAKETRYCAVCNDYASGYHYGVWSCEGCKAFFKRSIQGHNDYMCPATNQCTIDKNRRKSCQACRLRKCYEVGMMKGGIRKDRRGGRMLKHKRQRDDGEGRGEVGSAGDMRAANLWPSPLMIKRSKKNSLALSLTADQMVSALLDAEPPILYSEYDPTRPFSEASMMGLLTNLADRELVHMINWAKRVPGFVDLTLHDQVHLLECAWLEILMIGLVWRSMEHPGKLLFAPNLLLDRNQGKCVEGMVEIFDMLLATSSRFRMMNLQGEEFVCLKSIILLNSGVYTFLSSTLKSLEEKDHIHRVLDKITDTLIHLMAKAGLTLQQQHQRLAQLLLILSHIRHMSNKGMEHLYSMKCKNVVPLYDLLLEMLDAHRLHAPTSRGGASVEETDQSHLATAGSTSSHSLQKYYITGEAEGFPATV

[5] = system: MCF-7 breast cancer cells; assay: MCF-7 kidney capsule xenografts in nude mice; design: dose or concentration left out as unconfirmed; conditions: 28 days
Method: MCF-7 xenografts were introduced into nude mouse kidneys. Mice were randomized to three treatment groups. […] Each treatment group was treated for 28 days, after which mice were euthanized and the kidneys containing the xenografts were excised, photographed and weighed.

ERβ [6] = molecular target: T1, ERβ; assay: Concentration binding curve for Nyasol, ERβ (FIG. 6)
[7] = five years of tamoxifen therapy

Compound: TNF-α
- activation of 3 copies of the TNF-RE (−125 to −82) upstream of the tk promoter (TNF-RE tkLuc; TNF-α as stimulus): 5-10 fold

Compound: CC/C(=C(\c1ccccc1)c1ccc(OCCN(C)C)cc1)c1ccccc1 [tamoxifen]
- activation of TNF-RE tkLuc by antiestrogens (TNF-RE tkLuc): 2 fold
- reduction of the risk of primary invasive breast cancer [1]: 49%
- reduction of mortality from breast cancer [2, 7]: 22%
- reduction of the risk of recurrences [2, 7]: 42%
- ER positive breast tumors that respond ([2]; fraction of tumors): ⅔

Compound: C[C@]12CC[C@@H]3c4ccc(O)cc4CC[C@H]3[C@@H]1CC[C@@H]2O [E2, estradiol]
- repression of TNF-α activation of TNF-RE tkLuc (ERβ [3]): 60-80%

Compound: O=C(c1ccc(OCCN2CCCCC2)cc1)c1c(-c2ccc(O)cc2)sc2cc(O)ccc12 [raloxifene]
- effect of addition to nyasol on activation of the ERE ([4]; FIG. 5, added together with Nyasol, ERβ): reduced this activation
- cases of breast cancer (breast cancer): 13 cases
- activation of TNF-RE tkLuc by antiestrogens (TNF-RE tkLuc): 2 fold

Compound: C[C@]12CC[C@@H]3c4ccc(O)cc4C[C@@H](CCCCCCCCC[S+]([O-])CCCC(F)(F)C(F)(F)F)[C@H]3[C@@H]1CC[C@@H]2O (some centres unmarked) [ICI 182780]
- activation of TNF-RE tkLuc by antiestrogens (TNF-RE tkLuc): 2 fold

Compound: C=CC(/C=C\c1ccc(O)cc1)c1ccc(O)cc1 (centres unmarked) [Nyasol, nyasol]
- ERβ-selective activation of the ERE (luciferase expression, ERβ versus ERα) ([4]; FIG. 3, varying concentrations of nyasol, ERE-tkLuc): selectively activates the ERE; also recorded: selective estrogen receptor beta agonist
- expression of luciferase in ERE-tkLuc-transformed cells coexpressing ERβ ([4]; FIG. 5, nyasol, control EtOH): activated the ERE
- repression of TNFα-RE linked expression of Luc (TNFα-RE): selectively represses
- binding of ERα with nyasol (ERα): bind
- growth of MCF-7 kidney capsule xenografts compared to control [5]: inhibits the growth
- binding of ERβ with nyasol (ERβ [6]): bind
